Columns and labels:
Assay type in all cases: physicochemical
[1] = 3′-O-thiocarbamate blocking groups stability testing in incorporation buffer at 65° C. (HPLC); conditions: 9-day testing period (FIG. 6)
Procedure: The stability tests for 5′-mP 3′-DMTC T nucleotide was performed side by side in an incorporation buffer solution with standard 5′-mP 3′-O-azidomethyl T nucleotide.
For both 5′-mP 3′-DMTC T and 5′-mP 3′-O-azidomethyl T, the final solution volume was 1 mL and the final concentrations of the corresponding nucleotides were both 0.1 mM. Other components of the aqueous buffer solution include ethanolamine (EA), ethanolamine HCl, NaCl (100 mM), and EDTA (2.5 mM). The buffer solution has the following concentration: 0.5 M EA Buffer, 0.5 M NaCl, 0.01 M EDTA.
200 μL of 10× Buffer solution was added to a 1.7 mL polypropylene snap lock microtube and diluted with the correct volume of 18 mΩ water. The corresponding nucleoside was then added, the vial was sealed and mixed via inversion, gentle stirring or pumping with a micropipette. A 40 μL aliquot was taken and analyzed by HPLC to act as a starting (or t=0) value. The vials are then placed in a pre-heated heating mantle set to 65° C., covered with a thick layer of aluminum foil and left to heat for one month. 40 μL aliquots was taken periodically (weck 1: once daily. Wecks 2-4: 1 every 2 days) and analyzed by HPLC to determine the percentage starting material and the percentage deblocked (3′-OH) nucleotide in the samples. HPLC analysis was performed by measuring the area of the stating nucleotide peak and the 3′OH peak. […]

[2] = 3′-O-thiocarbamate (DMTC) deblocking test in solution (HPLC)
Procedure: (§1) In this example, deblocking or deblock tests for 5′-mP 3′-DMTC T and the standard 5′-mP 3′-O-azidomethyl T nucleotide were performed individually in a solution unique to each blocking group. Conditions were formulated to mimic Illumina's standard deblock reagent as closely as possible, and follow the same methodology. Concentrations of active deblock reagent, buffer, and nucleoside are kept the same across all tests, but the identity of each component was unique. In this way, the observed difference in rate between the individual deblocking chemistries cannot due to the differences in concentration of formulation.
Each reaction component was formulated individually as a concentrated stock in 18 mΩ water, stored appropriately, and aliquots combined in a specific order given below. Reaction was commenced by addition of the preformulated deblock reagent. […]
In a 3 mL glass vial was added the preformulated buffer solution followed by preformulated additive solution. […] A 40 μL aliquot was then taken, quenching reagent added and analyzed by HPLC as a reference (or t=0 min) peak. […] At specified time points, 40 μL aliquots were taken and quenched immediately with an appropriate quenching reagent, then analyzed by HPLC to determine the amount of deblocked nucleotide that has occurred at these specified time points. […]

[3] = Deblocking test of 3′ blocked T nucleotides in solution (Pd/THP for AOM, THP for azidomethyl; HPLC); conditions: 0.1 mM nucleotide, Pd/THP=1/5, 1 mM THP, ethanolamine pH 9.8, room temperature
Procedure: as §1, with “deblocking” for “deblocking or deblock”, “3′-AOM” for “3′-DMTC”
Nucleotide: 5′-monophosphate 3′-O-azidomethyl T. Active Deblock reagent: tris(hydroxypropyl)phosphine (THP) (1M in 18 mΩ water). (Optional) Additive: Sodium ascorbate (0.1 mM in 18 mΩ water) final conc.=1 mM. Buffer: Ethanolamine pH 9.8 (2M in 18 mΩ water). Quenching reagent: H2O2.
Nucleotide: 5′-monophosphate […]. A stock solution of 3′-AOM T was diluted to 0.1 mM in a 100 mM ethanolamine buffer (pH 9.8), in a glass vial under nitrogen. A stock solution of sodium ascorbate additive was added to a final concentration of 0.1 mM and the solution stirred 5 minutes. To commence the assay, the deblock reagents (Pd/THP=⅕; sodium ascorbate; ethanolamine) were added, to a final concentration of 1 mM THP, to the stirring solution at room temperature. […]

Row | SMILES | stability compared to nucleotide with standard 3′-O-azidomethyl group [1] | deblocking with NaIO4 ([2]; 1 mM NaIO4, pH 6.75 phosphate buffer (FIG. 7)) | deblocking rate with Oxone compared to standard azidomethyl blocking group ([2]; 1 mM Oxone, pH 8.65 phosphate buffer (FIG. 7)) | speed improvement in deblocking rate in solution compared to standard azidomethyl blocking group [3] [fold]
1 | Cc1cn([C@H]2CC(OC(=S)N(C)C)[C@@H](COP(=O)(O)O)O2)c(=O)[nH]c1=O (stereo partly shown) [DMTC] | improved stability | not efficient | superior deblocking rate | –
2 | C=CCOCOC1C[C@H](n2cc(C)c(=O)[nH]c2=O)O[C@@H]1COP(=O)(O)O (stereo partly shown) [AOM] | – | – | – | 10

Source: US12227802B2, “Nucleotides with a 3′ AOM blocking group” (Illumina Cambridge Limited, priority 2018, dated 2025)
